Structures can show the parent of a compound that is named as a salt.

The nature of the first data set: UV absorption spectrum (λmax, εmax, E1%) of the s-triazine UV screens in solution. Format: physicochemical. Conditions: UV (DMSO/ethanol).
Turning to `O=C(O)C(=Cc1ccc(Nc2nc(O)nc(Nc3ccc(C=C(C(=O)O)C(=O)O)cc3)n2)cc1)C(=O)O` [2-(4-{4-[4-(2,2-dicarboxyvinyl)phenylamino]-6-hydroxy[1,3,5]triazin-2-ylamino}benzylidene)malonic acid], the E1% entry was “E1% = 691”, the εmax entry was “εmax = 35 070” and the λmax entry is recorded as “λmax = 336 nm”.

Still in this data set, the particulars now being: UV (NaOH 0.1 N).
Regarding `O=C(O)C(=Cc1ccc(Nc2nc(O)nc(Nc3ccc(C=C(C(=O)O)C(=O)O)cc3)n2)cc1)C(=O)O` [Example 5, tetrasodium salt of 2-(4-{4-[4-(2,2-dicarboxyvinyl)phenylamino]-6-hydroxy[1,3,5]triazin-2-ylamino}benzylidene)malonic acid], the E1% result was “E1% = 852”, the εmax result is “εmax = 50 700” and the λmax entry was “λmax = 322 nm”.
Take `O=C(O)C(=Cc1ccc(Nc2nc(Cl)nc(Nc3ccc(C=C(C(=O)O)C(=O)O)cc3)n2)cc1)C(=O)O` [2-(4-{4-chloro-6-[4-(2,2-dicarboxy-vinyl)phenylamino][1,3,5]triazin-2-ylamino}benzylidene)malonic acid]: the E1% entry is listed as “E1% = 932”, the εmax entry is on record as “εmax = 64 960” and the λmax entry is on record as “λmax = 320 nm”.

The data set is the same for the next values; noted with them: UV (ethanol).
For `O=C(O)C(=Cc1ccc(Nc2nc(Nc3ccc(C=C(C(=O)O)C(=O)O)cc3)nc(Nc3ccc(C=C(C(=O)O)C(=O)O)cc3)n2)cc1)C(=O)O` [acid derivative of Example 1, 2-(4-[4,6-bis[4-(2,2-dicarboxyvinyl)phenylamino][1,3,5]triazin-2-ylamino}benzylidene)malonic acid], the E1% result is recorded as “E1% = 930”, the εmax entry is on record as “εmax = 64 820” and the λmax entry is given as “λmax = 348 nm”.

The data set is the same for the next values; noted with them: UV (water).
On to `O=C(O)C(=Cc1ccc(Nc2nc(Nc3ccc(C=C(C(=O)O)C(=O)O)cc3)nc(Nc3ccc(C=C(C(=O)O)C(=O)O)cc3)n2)cc1)C(=O)O` [Example 2, hexasodium salt of 2-(4-{4,6-bis[4-(2,2-dicarboxyvinyl)phenylamino][1,3,5]triazin-2-ylamino}benzylidene)malonic acid], for which the E1% entry is given as “E1% = 1 060”, the εmax entry is given as “εmax = 87 820” and the λmax entry is “λmax = 323 nm”.
For the compound `O=C(O)/C=C/c1ccc(Nc2nc(Nc3ccc(C=C(C(=O)O)C(=O)O)cc3)nc(Nc3ccc(C=C(C(=O)O)C(=O)O)cc3)n2)cc1` [Example 9, pentasodium salt of 2-(4-{4-[4-(2-carboxyvinyl)phenylamino]-6-[4-(2,2-dicarboxy-vinyl)phenylamino][1,3,5]triazin-2-ylamino}benzylidene)malonic acid], the E1% result is “E1% = 1 274”, the εmax entry is given as “εmax = 83 070” and the λmax entry is on record as “λmax = 327 nm”.
Take `COc1ccc(-c2nc(Nc3ccc(C=C(C(=O)O)C(=O)O)cc3)nc(Nc3ccc(C=C(C(=O)O)C(=O)O)cc3)n2)cc1` [Example 6, tetrasodium salt of 2-{4-[4-[4-(2,2-dicarboxyvinyl)phenylamino]-6-(4-methoxyphenyl)[1,3,5]triazin-2-ylamino]benzylidene}malonic acid]: the E1% result was “E1% = 768”, the εmax result is on record as “εmax = 45 900” and the λmax entry is listed as “λmax = 318 nm”.
As to `O=C(O)C(=Cc1ccc(Nc2nc(Nc3ccc(C=C(C(=O)O)C(=O)O)cc3)nc(Nc3ccc(C=C(C(=O)O)C(=O)O)cc3)n2)cc1)C(=O)O` [Example 4, hexatriethanolamine salt of 2-(4-{4,6-bis[4-(2,2-dicarboxyvinyl)phenylamino][1,3,5]triazin-2-ylamino}benzylidene)malonic acid], the E1% entry is on record as “E1% = 523”, the εmax entry was “εmax = 83 250” and the λmax result was “λmax = 322 nm”.
`CCCCOc1nc(Nc2ccc(C=C(C(=O)O)C(=O)O)cc2)nc(Nc2ccc(C=C(C(=O)O)C(=O)O)cc2)n1` [Example 7, tetrasodium salt of 2-(4-{4-butoxy-6-[4-(2,2-dicarboxyvinyl)phenylamino][1,3,5]triazin-2-ylamino}benzylidene)malonic acid]: the E1% entry is recorded as “E1% = 922”, the εmax entry is on record as “εmax = 51 960” and the λmax entry was “λmax = 317 nm”.
With `O=C(O)C(=Cc1ccc(Nc2nc(Nc3ccc(C=C(C(=O)O)C(=O)O)cc3)nc(Nc3ccc(C=C(C(=O)O)C(=O)O)cc3)n2)cc1)C(=O)O` [Example 3, hexapotassium salt of 2-(4-{4,6-bis[4-(2,2-dicarboxyvinyl)phenylamino][1,3,5]triazin-2-ylamino}benzylidene)malonic acid], the E1% entry is “E1% = 720”, the εmax entry is recorded as “εmax = 66 600” and the λmax entry is given as “λmax = 324 nm”.
For the compound `O=C(O)C(=Cc1ccc(Nc2nc(Nc3ccc(C=C(C(=O)O)C(=O)O)cc3)nc(Nc3ccc(C=C(C(=O)O)C(=O)O)cc3)n2)cc1)C(=O)O` [Example 1, hexasodium salt of 2-(4-{4,6-bis[4-(2,2-dicarboxyvinyl)phenylamino][1,3,5]triazin-2-ylamino}benzylidene)malonic acid], the E1% entry was “E1% = 1 043”, the εmax entry was “εmax = 86 428” and the λmax result is reported as “λmax = 323 nm”.
With `CC12CCC(/C(=C\c3ccc(Nc4nc(Nc5ccc(C=C(C(=O)O)C(=O)O)cc5)nc(Nc5ccc(/C=C6/C(=O)C7(C)CCC6C7(C)C)cc5)n4)cc3)C1=O)C2(C)C` [Example 11, disodium salt of 2-(4-{[4,6-bis({4-(4,7,7-trimethyl-3-oxobicyclo[2.2.1]hept-2-ylidene)methyl]phenyl}amino)[1,3,5]triazin-2-ylamino}benzylidene)malonic acid], the E1% entry is “E1% = 1 238”, the εmax entry was “εmax = 98 170” and the λmax entry was “λmax = 353 nm”.
Taken in the same sequence, the figures for `CC12CCC(/C(=C\c3ccc(Nc4nc(Nc5ccc(C=C(C(=O)O)C(=O)O)cc5)nc(Nc5ccc(C=C(C(=O)O)C(=O)O)cc5)n4)cc3)C1=O)C2(C)C` (stereo not drawn) [Example 10, tetrasodium salt of 2-(4-{4-[4-(2-dicarboxyvinyl)phenylamino]-6-[4-(4,7,7-trimethyl-3-oxobicyclo[2.2.1]hept-2-ylidenemethyl)phenylamino][1,3,5]triazin-2-ylamino}benzylidene)malonic acid] were “E1% = 963”, “εmax = 69 210” and “λmax = 329 nm”.

These data come from patent publication US7534421B2, “s-Triazine compounds bearing at least one para-aminobenzalmalonic salt substituent and photoprotective cosmetic compositions comprised thereof” (L'Oreal, priority 2003, dated 2009).
